According to patent US20220313581A1, “NOVEL COMPOUNDS FOR SKIN LIGHTENING” (Conopco, Inc. , d/b/a UNILEVER, priority 2019, published 2022):

Tested on: Melanoderm human tissue (MEL-300-B, Mattek Corp.)
Assay: Melanoderm assay (melanin quantitation)
Format: cell-based
Settings: for Melanin content / skin lightening effect (in words): melanoderm treatment, 10 uM, compared to vehicle control; for Melanin (μg/μg protein): test compound 10 uM, 12 d dosing, melanin normalized to protein, mean +/− standard deviation, n = 3, vehicle control 0.240 +/− 0.020
Description: Control compounds consisted of a negative control (ultrapure water), vehicle control [Dimethylsulfoxide (DMSO) in ultrapure water—final concentration of 0.1%] and positive control (2% kojic acid in ultrapure water—final concentration of 700 uM). Test compounds where prepared in DMSO at 10 mM concentrations and diluted with EPI-100-LLMM media (Mattek Corp.) to a final concentration of 10 uM. Melanoderm human tissue (MEL-300-B, Mattek Corp.) was equilibrated with EPI-100-NMM media for 24 h, followed by equilibration with EPI-100-LLMM media for 48 h prior to treatment with test compounds and controls. Dosing and re-feeding of melanoderms with controls and test compounds continued for a total of 12 d following standard protocols and the melanoderms collected for melanin quantitation, viability analysis and macroscopic/microscopic imaging analysis. For melanin quantitation, tissues were suspended in phosphate buffer saline (PBS) buffer (5 ml) for 5 min, removed from the PBS and washed/rinsed with additional PBS (2 ml). Tissues were treated with 1% sodium bicarbonate solution (300 ul) for 30 min, followed by removal of the sodium bicarbonate solution and washed/rinsed with PBS solution (2×2 ml). Tissues were suspended in Solvable reagent (500 ul) and incubated at 95° C. for 24 h along with melanin standard samples (prepared by suspending melanin (cat #M8631, Sigma-Aldrich) in Solvable reagent to generate melanin standards at 0, 2.5, 5, 10, 25, 50 and 100 ug). All incubated samples were centrifuged at 13000 rpm for 5 min and the optical density of the supernatant was read/determined at 490 nm. The amount of melanin (ug) from each tissue sample was determined from the melanin standard samples calibration curve. Protein concentration of tissue samples was determined using the BCA protein assay kit (Pierce) and melanin content was normalized and expressed as melanin (ug)/protein (ug) (Table 1). Tissue viability as a result of test compound dosing/feeding relative to negative and vehicle controls was determined using the WST-1 reagent kit (cat #05015944001, Roche). Tissue images were examined macroscopically to assess the skin lightening ability of test compounds compared to negative, vehicle and positive controls and microscopically (10× magnification) to assess cytotoxicity.

Structure (SMILES)	Melanin content / skin lightening effect (in words)	Melanin (μg/μg protein)
CC(C)Oc1ccc(C(NC2CCC(O)CC2)C2CCCCC2)cc1 (stereo not drawn) [Example 1, 4-((cyclohexyl(4-isopropoxyphenyl)methyl)amino)cyclohexanol]	reduced melanin content	0.158 +/− 0.006 μg/μg protein
CC(C)Oc1ccc(C(NC2CCC(CCO)CC2)c2ccccc2)cc1 (stereo not drawn) [Example 2, 2-(4-(((4-isopropoxyphenyl)(phenyl)methyl)amino)cyclohexyl)ethanol]	reduced melanin content	0.076 +/− 0.012 μg/μg protein
CC1CCC(NC(c2ccccc2)c2ccc(OC(C)C)cc2)CC1 (stereo not drawn) [Example 3, N-((4-isopropoxyphenyl)(phenyl)methyl)-4-methylcyclohexanamine]	reduced melanin content	0.144 +/− 0.006 μg/μg protein
